PMC6199744, “Development of Chemical Proteomics for the Folateome and Analysis of the Kinetoplastid Folateome” (ACS Infectious Diseases, 2018)
Read-outs that look alike come from different tables or passages of the source.

Tests used:
Format in all cases: binding
[1] = target: T1, HeLa cell extract proteins (Homo sapiens, UniProt O95347); conditions: protein SMC2; HeLa
T1 construct: endogenous in cells; host or cells: HeLa cell extract

[2] = target: T2, HeLa cell extract proteins (Homo sapiens, UniProt P10155); conditions: protein TROVE2; HeLa
T2 construct: endogenous in cells; host or cells: HeLa cell extract

[3] = target: T3, HeLa cell extract proteins (Homo sapiens, UniProt P17655); conditions: protein CAPN2; HeLa
T3 construct: endogenous in cells; host or cells: HeLa cell extract
T3 sequence (P17655 1-700): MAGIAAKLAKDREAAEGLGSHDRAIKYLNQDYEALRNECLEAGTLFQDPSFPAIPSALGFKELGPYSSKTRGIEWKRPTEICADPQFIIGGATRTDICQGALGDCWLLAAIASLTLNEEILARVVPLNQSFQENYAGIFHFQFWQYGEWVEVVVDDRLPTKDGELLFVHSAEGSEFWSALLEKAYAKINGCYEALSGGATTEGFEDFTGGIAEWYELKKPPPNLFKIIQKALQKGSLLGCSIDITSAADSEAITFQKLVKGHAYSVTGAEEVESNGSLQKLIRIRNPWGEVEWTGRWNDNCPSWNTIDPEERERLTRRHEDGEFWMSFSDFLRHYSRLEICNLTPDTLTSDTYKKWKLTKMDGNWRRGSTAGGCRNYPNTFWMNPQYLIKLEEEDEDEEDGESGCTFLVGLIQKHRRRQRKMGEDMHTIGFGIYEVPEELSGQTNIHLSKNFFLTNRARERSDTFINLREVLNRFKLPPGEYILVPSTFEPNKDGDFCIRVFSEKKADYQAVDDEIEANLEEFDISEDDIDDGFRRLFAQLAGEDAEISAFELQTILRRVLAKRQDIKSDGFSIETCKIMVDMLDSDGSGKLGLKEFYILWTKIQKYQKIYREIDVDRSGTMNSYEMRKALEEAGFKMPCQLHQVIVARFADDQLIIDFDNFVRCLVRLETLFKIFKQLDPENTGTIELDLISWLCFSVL

[4] = target: T4, HeLa cell extract proteins (Homo sapiens, UniProt P22061); conditions: protein PCMT1; HeLa
T4 construct: endogenous in cells; host or cells: HeLa cell extract

[5] = target: T5, HeLa cell extract proteins (Homo sapiens, UniProt P25786); conditions: protein PSMA1; HeLa
T5 construct: endogenous in cells; host or cells: HeLa cell extract

[6] = target: T6, HeLa cell extract proteins (Homo sapiens, UniProt P46109); conditions: HeLa; protein CRKL
T6 construct: endogenous in cells; host or cells: HeLa cell extract

[7] = target: T7, HeLa cell extract proteins (Homo sapiens, UniProt Q13501); conditions: HeLa; protein SQSTM1
T7 construct: endogenous in cells; host or cells: HeLa cell extract

[8] = target: T8, HeLa cell extract proteins (Homo sapiens, UniProt Q16795); conditions: captured protein NDUFA9; HeLa
T8 construct: endogenous in cells; host or cells: HeLa cell extract

[9] = target: T9, HeLa cell extract proteins (Homo sapiens, UniProt P14373)
T9 construct: endogenous in cells; host or cells: HeLa cell extract
T9 sequence (P14373 1-513): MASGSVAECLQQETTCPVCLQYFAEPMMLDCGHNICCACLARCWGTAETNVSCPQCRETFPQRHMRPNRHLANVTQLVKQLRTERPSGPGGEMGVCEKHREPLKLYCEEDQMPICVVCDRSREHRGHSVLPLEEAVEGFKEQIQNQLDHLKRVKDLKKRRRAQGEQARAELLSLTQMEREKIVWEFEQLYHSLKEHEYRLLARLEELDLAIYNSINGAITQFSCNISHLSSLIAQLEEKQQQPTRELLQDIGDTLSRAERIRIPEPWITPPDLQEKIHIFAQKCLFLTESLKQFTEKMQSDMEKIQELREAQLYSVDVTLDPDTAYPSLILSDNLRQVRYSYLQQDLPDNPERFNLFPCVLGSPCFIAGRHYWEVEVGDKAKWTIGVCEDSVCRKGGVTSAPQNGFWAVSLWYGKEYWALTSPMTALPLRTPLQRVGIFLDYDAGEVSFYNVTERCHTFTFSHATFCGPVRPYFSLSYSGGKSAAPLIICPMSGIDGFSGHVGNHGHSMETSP

[10] = target: T10, HeLa cell extract proteins (Homo sapiens, UniProt P45954)
T10 construct: endogenous in cells; host or cells: HeLa cell extract

[11] = target: T11, HeLa cell extract proteins (Homo sapiens, UniProt Q15370)
T11 construct: endogenous in cells; host or cells: HeLa cell extract

[12] = target: T12, HeLa cell extract proteins (Homo sapiens, UniProt Q9UHD8)
T12 construct: endogenous in cells; host or cells: HeLa cell extract
T12 sequence (Q9UHD8 1-586): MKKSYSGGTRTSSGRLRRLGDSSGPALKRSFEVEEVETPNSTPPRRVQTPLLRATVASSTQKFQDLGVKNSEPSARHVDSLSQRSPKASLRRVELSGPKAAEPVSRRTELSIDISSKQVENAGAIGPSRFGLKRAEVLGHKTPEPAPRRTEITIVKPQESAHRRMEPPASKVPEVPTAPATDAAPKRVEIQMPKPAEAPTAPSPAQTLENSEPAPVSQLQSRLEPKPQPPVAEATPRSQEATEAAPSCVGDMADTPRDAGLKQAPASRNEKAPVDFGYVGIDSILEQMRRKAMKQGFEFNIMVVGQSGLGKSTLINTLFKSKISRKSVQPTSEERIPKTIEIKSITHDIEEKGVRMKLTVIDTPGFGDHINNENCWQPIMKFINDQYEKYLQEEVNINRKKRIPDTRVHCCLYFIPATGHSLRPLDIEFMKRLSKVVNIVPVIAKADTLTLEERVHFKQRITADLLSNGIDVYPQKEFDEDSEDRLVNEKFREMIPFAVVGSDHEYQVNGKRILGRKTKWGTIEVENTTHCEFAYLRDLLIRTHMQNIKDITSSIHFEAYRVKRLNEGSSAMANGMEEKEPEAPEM

T11 sequence (Q15370 whole entry): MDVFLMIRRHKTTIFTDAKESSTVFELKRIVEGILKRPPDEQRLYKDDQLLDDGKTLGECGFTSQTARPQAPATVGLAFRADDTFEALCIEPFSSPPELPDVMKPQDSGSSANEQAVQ
T5 sequence (P25786 whole entry): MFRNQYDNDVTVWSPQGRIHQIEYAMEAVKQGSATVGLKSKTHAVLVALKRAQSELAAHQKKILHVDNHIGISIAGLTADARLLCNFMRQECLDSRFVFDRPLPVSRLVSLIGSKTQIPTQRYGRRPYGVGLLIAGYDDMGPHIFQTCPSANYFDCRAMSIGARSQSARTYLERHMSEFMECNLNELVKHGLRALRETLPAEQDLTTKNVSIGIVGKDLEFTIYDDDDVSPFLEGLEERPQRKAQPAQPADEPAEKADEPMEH
T6 sequence (P46109 whole entry): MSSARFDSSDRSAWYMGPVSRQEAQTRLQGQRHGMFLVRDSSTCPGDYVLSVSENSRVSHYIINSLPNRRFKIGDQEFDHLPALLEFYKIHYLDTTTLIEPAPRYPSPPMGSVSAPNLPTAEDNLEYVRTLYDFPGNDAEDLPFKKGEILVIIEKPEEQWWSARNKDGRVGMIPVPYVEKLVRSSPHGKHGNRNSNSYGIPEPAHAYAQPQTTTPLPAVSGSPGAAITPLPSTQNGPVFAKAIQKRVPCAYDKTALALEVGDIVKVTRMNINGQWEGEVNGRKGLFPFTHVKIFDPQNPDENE
T4 sequence (P22061 whole entry): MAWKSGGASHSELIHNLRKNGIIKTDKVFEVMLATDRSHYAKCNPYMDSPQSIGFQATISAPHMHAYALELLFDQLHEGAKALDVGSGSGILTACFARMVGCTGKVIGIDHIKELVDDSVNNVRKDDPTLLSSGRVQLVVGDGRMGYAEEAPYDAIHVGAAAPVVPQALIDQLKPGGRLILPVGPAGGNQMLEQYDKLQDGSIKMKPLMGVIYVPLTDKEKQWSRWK
T7 sequence (Q13501 whole entry): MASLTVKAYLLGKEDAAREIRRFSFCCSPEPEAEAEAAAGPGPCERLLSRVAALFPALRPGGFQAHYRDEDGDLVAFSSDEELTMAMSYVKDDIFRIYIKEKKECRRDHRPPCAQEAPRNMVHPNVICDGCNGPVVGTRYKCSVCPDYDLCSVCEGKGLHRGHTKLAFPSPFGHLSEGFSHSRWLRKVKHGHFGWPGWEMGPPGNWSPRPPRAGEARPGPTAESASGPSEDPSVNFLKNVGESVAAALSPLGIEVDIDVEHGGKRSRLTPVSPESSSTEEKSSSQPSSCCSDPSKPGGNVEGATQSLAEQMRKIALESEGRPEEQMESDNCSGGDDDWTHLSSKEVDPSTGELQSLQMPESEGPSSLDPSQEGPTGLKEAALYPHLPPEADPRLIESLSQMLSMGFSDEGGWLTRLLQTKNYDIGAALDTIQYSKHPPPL
T8 sequence (Q16795 36-377): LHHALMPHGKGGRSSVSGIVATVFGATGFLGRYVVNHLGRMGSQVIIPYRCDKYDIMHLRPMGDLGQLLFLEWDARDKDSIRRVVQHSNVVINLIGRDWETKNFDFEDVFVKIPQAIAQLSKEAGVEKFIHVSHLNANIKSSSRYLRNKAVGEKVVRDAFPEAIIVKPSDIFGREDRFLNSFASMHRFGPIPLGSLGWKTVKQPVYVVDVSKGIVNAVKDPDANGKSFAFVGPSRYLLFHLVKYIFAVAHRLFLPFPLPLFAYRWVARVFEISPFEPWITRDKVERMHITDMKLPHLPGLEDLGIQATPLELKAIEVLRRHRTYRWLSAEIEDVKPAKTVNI
T2 sequence (P10155 whole entry): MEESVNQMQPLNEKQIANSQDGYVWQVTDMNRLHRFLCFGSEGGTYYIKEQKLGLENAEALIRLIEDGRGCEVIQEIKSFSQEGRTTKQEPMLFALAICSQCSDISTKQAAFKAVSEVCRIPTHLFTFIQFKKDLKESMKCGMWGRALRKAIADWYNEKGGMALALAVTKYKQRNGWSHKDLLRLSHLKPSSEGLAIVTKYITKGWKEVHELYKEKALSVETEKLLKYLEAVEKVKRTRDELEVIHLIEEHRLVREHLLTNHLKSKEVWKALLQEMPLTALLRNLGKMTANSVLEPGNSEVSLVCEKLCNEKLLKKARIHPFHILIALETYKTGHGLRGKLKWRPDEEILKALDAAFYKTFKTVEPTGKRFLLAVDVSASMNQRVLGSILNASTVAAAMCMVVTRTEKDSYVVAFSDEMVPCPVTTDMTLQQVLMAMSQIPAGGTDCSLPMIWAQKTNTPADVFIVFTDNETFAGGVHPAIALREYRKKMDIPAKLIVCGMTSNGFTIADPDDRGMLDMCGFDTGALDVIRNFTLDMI
T1 sequence (O95347 whole entry): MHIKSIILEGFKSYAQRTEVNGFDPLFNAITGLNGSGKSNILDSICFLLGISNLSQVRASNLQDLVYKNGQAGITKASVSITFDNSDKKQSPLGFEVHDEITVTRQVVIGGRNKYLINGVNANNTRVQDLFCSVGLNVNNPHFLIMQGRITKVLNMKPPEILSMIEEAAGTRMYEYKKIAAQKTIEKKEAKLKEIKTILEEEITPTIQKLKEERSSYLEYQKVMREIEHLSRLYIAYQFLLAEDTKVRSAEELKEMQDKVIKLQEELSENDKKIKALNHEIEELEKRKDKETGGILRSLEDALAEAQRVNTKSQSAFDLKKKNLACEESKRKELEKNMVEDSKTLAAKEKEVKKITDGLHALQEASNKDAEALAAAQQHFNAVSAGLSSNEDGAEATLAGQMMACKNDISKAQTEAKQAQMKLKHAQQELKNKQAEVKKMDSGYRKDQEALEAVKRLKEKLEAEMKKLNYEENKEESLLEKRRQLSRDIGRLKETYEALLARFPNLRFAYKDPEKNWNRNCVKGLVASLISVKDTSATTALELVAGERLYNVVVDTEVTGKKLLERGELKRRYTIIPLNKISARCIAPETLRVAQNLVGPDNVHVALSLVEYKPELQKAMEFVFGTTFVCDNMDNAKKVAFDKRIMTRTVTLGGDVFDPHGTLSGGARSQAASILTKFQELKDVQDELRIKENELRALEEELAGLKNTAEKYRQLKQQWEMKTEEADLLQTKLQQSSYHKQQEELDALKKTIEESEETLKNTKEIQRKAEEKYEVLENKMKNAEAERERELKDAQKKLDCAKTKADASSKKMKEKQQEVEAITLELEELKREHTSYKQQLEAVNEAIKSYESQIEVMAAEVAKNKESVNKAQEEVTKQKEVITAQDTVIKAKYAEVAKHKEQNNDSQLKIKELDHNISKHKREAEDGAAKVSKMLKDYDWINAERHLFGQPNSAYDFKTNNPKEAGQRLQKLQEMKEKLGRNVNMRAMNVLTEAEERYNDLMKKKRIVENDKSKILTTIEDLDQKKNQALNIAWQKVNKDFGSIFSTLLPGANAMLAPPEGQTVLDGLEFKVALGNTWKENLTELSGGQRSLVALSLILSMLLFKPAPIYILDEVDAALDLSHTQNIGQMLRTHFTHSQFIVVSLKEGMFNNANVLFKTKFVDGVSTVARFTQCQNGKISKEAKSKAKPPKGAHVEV

| Structure (SMILES) | fold changes relative to vehicle control [1] | fold changes relative to vehicle control [2] | fold changes relative to vehicle control [3] | fold changes relative to vehicle control [4] | fold changes relative to vehicle control [5] | fold changes relative to vehicle control [6] | fold changes relative to vehicle control [7] | fold changes relative to vehicle control [8] | fold changes relative to vehicle control ([9]; HeLa, captured protein TRIM27) | fold changes relative to vehicle control ([10]; HeLa, protein ACADSB) | fold changes relative to vehicle control ([11]; protein TCEB2, HeLa) | fold changes relative to vehicle control ([12]; protein SEPT9, HeLa) | fold changes relative to vehicle control [9] | fold changes relative to vehicle control [10] | fold changes relative to vehicle control [11] | fold changes relative to vehicle control [12] |
| --- | --- | --- | --- | --- | --- | --- | --- | --- | --- | --- | --- | --- | --- | --- | --- | --- |
| Nc1nc2cccc(-c3ccccc3)c2n1Cc1ccc(Cl)c(Cl)c1 [compound 3] | 1.11 | 1.27 | 0.91 | 0.88 | 0.97 | 1.15 | 1.2 | 1.04 |  |  |  |  |  |  |  |  |
| CCCCCCOc1ccc(Cc2cnc(N)nc2N)cc1 [compound 1] | 1.4 | 1.05 | 0.97 | 0.92 | 1.2 | 0.82 | 1.3 | 1.01 |  |  |  |  |  |  |  |  |
| NCCCNc1ccc(C(=O)NC(CCC(=O)O)C(=O)O)cc1 (stereo not shown) [compound 7] |  |  |  |  |  |  |  |  | 1.01 | 1.02 | 1.1 | 0.92 |  |  |  |  |
| CCCCCCOc1cccc(Cc2cnc(N)nc2N)c1 [compound 2] | 1.36 | 1.49 | 1.23 | 1.28 | 1.36 | 0.96 | 0.96 | 0.87 |  |  |  |  |  |  |  |  |
| NCCOCCOCC(=O)Nc1nc2ncc(CNc3ccc(C(=O)NC(CCC(=O)O)C(=O)O)cc3)nc2c(=O)[nH]1 (stereo not shown) [compound 6] |  |  |  |  |  |  |  |  | 0.89 | 0.96 | 1.43 | 1 |  |  |  |  |
| Nc1nc2[nH]cc(CCc3ccc(C(=O)N[C@@H](CCC(=O)O)C(=O)O)cc3)c2c(=O)[nH]1 [PTX, pemetrexed] |  |  |  |  |  |  |  |  |  |  |  |  | 0.87 | 0.93 | 1.02 | 0.96 |
| Nc1nc2c(c(=O)[nH]1)N(C=O)C(CNc1ccc(C(=O)N[C@@H](CCC(=O)O)C(=O)O)cc1)CN2 (stereo partly shown) [LEU, leucovorin] |  |  |  |  |  |  |  |  | 0.97 | 0.9 | 0.9 | 0.93 |  |  |  |  |
